From patent US20220000117A1, “METHOD FOR CONTROLLING DISEASES IN SMALL GRAIN CEREALS, SEED OF SMALL GRAIN CEREALS, AND METHOD FOR SUPPRESSING LODGING DAMAGE IN SMALL GRAIN CEREALS” (KUMIAI CHEMICAL INDUSTRY CO., LTD., priority 2019, published 2022) come the findings set out here.

The test system of assay [1] is powdery mildew. Description: Test Example 9: control test of wheat powdery mildew, cup in greenhouse, inoculated, Norin No. 61 (Tables 10 to 14). Type of assay: in vivo, Blumeria graminis. Further details: key to Degree of Disease Occurrence: Σ(index×leaves)/(4×leaves investigated)×100; 0 = no disease, 100 = max. As to the method: (§1) Degree of Disease Occurrence=Σ(Index×Number of Leaves of Index)/(4×Number of Investigated Leaves)×100 (1)
Seed of wheat (variety: Norin No. 61) was used, and 100 ml of suspension waters each containing the compound shown in Table 10 at an amount shown in […] (synthesis was performed in accordance with a known method, a solution dissolved in DMSO or formulated 10% wettable powder was used) were prepared. The seed having a mass of 1 kg of wheat was mixed into the suspension water with a chemical treated amount shown in Table 10, and air-dried, and then, 5 seeds were sown in a plastic cup having a diameter of 6 cm containing river sand and managed in a greenhouse. In Comparative Examples, 20 ml of the suspension water of an active ingredient, which had been adjusted to have a concentration shown in Table 10, was sprayed in a frame of 45 cm×45 cm in which a pot of wheat seedlings was placed (corresponding to 1000 L/ha) 14 days after seeding. On day 14 after seeding, conidiospores of powdery mildew were sifted over leaves of wheat seedlings and inoculated onto the leaves (after the sprayed liquid was dried in the case of Comparative Examples), a lesion area ratio of powdery mildew in a first leaf was investigated 21 days after seeding according to the criteria in Table 1, and the degree of disease occurrence was calculated by the above calculation formula (1).

Assay [2] has as its system septoria leaf blotch. As to the kind of experiment: Test Example 10: control test of septoria leaf blotch of wheat, cup in greenhouse, inoculated, variety ARKEOS (Tables 15 to 19). Type of assay: in vivo, Septoria tritici. The protocol:
as §1
Seed of wheat (variety: ARKEOS) was used, and 100 ml of suspension waters each containing the compound shown in Table 15 at an amount shown in Table 15 (synthesis was performed in accordance with a known method, a liquid dissolved in a small amount of DMSO or formulated 10% wettable powder was used) were prepared. Seed having a mass of 1 kg was mixed into the suspension water with a rate shown in Examples of Table 15, and air-dried, and then, 5 seeds were sown in a plastic cup having a diameter of 6 cm containing mixed soil of river sand and horticultural soil and managed in a greenhouse. In Comparative Examples, 20 ml of suspension water of an active ingredient, which had been adjusted to have a concentration shown in Table 15 to 19, was sprayed in a frame of 45 cm×45 cm in which a pot of wheat seedlings was placed (corresponding to 1000 L/ha) 14 days after seeding. On day 14 after seeding, a spore suspension in which conidiospores of septoria leaf blotch are suspended was sprayed and inoculated on leaves of wheat seedlings (after the sprayed liquid was dried in the case of Comparative Examples), a lesion area ratio of septoria leaf blotch in a second leaf was investigated approximately 35 days after seeding according to the criteria in Table 1, and the degree of disease occurrence was calculated by the above calculation formula (1).

Where [3] appears, read: Table 14, Foliage Treatment, spray 10 ppm suspension water (corresponding to 10 g/ha) 14 days after seeding, untreated 70.0.
Where [4] appears, read: Table 14, Foliage Treatment, spray 10 ppm suspension water (corresponding to 10 g/ha) 14 days after seeding, untreated 100.0.
Where [5] appears, read: Table 14, Foliage Treatment, spray 100 ppm suspension water (corresponding to 100 g/ha) 14 days after seeding, untreated 70.0.
[6] abbreviates: Table 14, Foliage Treatment, spray 100 ppm suspension water (corresponding to 100 g/ha) 14 days after seeding, untreated 100.0.
Where [7] appears, read: Table 14, Seed Treatment, 0.1 g/Seed 1 kg (corresponding to 10 g/ha), first leaf, 21 days after seeding, untreated 70.0.
The mark [8] stands for this setting: Table 14, Seed Treatment, 0.1 g/Seed 1 kg (corresponding to 10 g/ha), first leaf, 21 days after seeding, untreated 100.0.
The mark [9] stands for this setting: Table 14, Seed Treatment, 1 g/Seed 1 kg (corresponding to 100 g/ha), first leaf, 21 days after seeding, untreated 70.0.
The mark [10] stands for this setting: Table 14, Seed Treatment, 1 g/Seed 1 kg (corresponding to 100 g/ha), first leaf, 21 days after seeding, untreated 100.0.
The mark [11] stands for this setting: Table 19, Foliage Treatment, spray 50 ppm suspension water (corresponding to 50 g/ha) 14 days after seeding, untreated 45.0.
Where [12] appears, read: Table 19, Foliage Treatment, spray 50 ppm suspension water (corresponding to 50 g/ha) 14 days after seeding, untreated 98.0.
[13] abbreviates: Table 19, Seed Treatment, 0.5 g/Seed 1 kg (corresponding to 50 g/ha), untreated 45.0.
The mark [14] stands for this setting: Table 19, Seed Treatment, 0.5 g/Seed 1 kg (corresponding to 50 g/ha), untreated 98.0.
Setting [15] is: Table 14, Foliage Treatment, spray 50 ppm suspension water (corresponding to 50 g/ha) 14 days after seeding, untreated 70.0.
The mark [16] stands for this setting: Table 14, Foliage Treatment, spray 50 ppm suspension water (corresponding to 50 g/ha) 14 days after seeding, untreated 100.0.
Setting [17] is: Table 14, Seed Treatment, 0.5 g/Seed 1 kg (corresponding to 50 g/ha), first leaf, 21 days after seeding, untreated 70.0.
[18] abbreviates: Table 14, Seed Treatment, 0.5 g/Seed 1 kg (corresponding to 50 g/ha), first leaf, 21 days after seeding, untreated 100.0.
[19] abbreviates: Table 18, Foliage Treatment, spray 50 ppm (50 g/ha).
Where [20] appears, read: Table 18, Seed Treatment 0.5 g/Seed 1 kg (50 g/ha).
Setting [21] is: Table 12 run (different day), Foliage Treatment, spray 10 ppm (10 g/ha).
Where [22] appears, read: Table 12 run (different day), Foliage Treatment, spray 50 ppm (50 g/ha).
Setting [23] is: Table 12 run (different day), Seed Treatment 0.1 g/Seed 1 kg (10 g/ha).
Setting [24] is: Table 12 run (different day), Seed Treatment 0.5 g/Seed 1 kg (50 g/ha).
[25] abbreviates: Table 11 run (different day), Foliage Treatment, spray 50 ppm (50 g/ha).
[26] abbreviates: Table 11 run (different day), Seed Treatment 0.5 g/Seed 1 kg (50 g/ha).
[27] abbreviates: Table 13 run (different day), Foliage Treatment, spray 10 ppm (10 g/ha).
Where [28] appears, read: Table 13 run (different day), Foliage Treatment, spray 50 ppm (50 g/ha).
The mark [29] stands for this setting: Table 13 run (different day), Seed Treatment 0.1 g/Seed 1 kg (10 g/ha).
Setting [30] is: Table 13 run (different day), Seed Treatment 0.5 g/Seed 1 kg (50 g/ha).
Setting [31] is: Table 17, Foliage Treatment, spray 10 ppm suspension water (corresponding to 10 g/ha) 14 days after seeding, untreated 50.0.
Setting [32] is: Table 17, Foliage Treatment, spray 10 ppm suspension water (corresponding to 10 g/ha) 14 days after seeding, untreated 100.0.
[33] abbreviates: Table 17, Foliage Treatment, spray 100 ppm suspension water (corresponding to 100 g/ha) 14 days after seeding, untreated 50.0.
Where [34] appears, read: Table 17, Foliage Treatment, spray 100 ppm suspension water (corresponding to 100 g/ha) 14 days after seeding, untreated 100.0.
The mark [35] stands for this setting: Table 17, Seed Treatment, 0.1 g/Seed 1 kg (corresponding to 10 g/ha), untreated 50.0.
The mark [36] stands for this setting: Table 17, Seed Treatment, 0.1 g/Seed 1 kg (corresponding to 10 g/ha), untreated 100.0.
Setting [37] is: Table 17, Seed Treatment, 1 g/Seed 1 kg (corresponding to 100 g/ha), untreated 50.0.
Where [38] appears, read: Table 17, Seed Treatment, 1 g/Seed 1 kg (corresponding to 100 g/ha), untreated 100.0.

Consider `N=C(OCc1ccccc1)c1snc(Cl)c1Cl` [Compound (12)], for which the “Degree of Disease Occurrence” value in assay [1] (setting [3]) was determined as 56.9; in assay [1] (setting [5]), 47.9; in assay [1] (setting [7]) it was 21.3; in assay [1] (setting [9]), 34.1; in assay [2] (Table 19, Foliage Treatment, spray 10 ppm suspension water (corresponding to 10 g/ha) 14 days after seeding, untreated 45.0), 53.3; in assay [2] (setting [11]) it was 39.2. In addition, the “Degree of Disease Occurrence” value in assay [2] (Table 19, Seed Treatment, 0.1 g/Seed 1 kg (corresponding to 10 g/ha), untreated 45.0) is listed as 26.3; in assay [2] (setting [13]) it was 10.3. For the same compound, the “Disease Leaf Rate (%)” value was 94.4% in assay [1] (setting [4]); 93.3% in assay [1] (setting [6]); 75.8% in assay [1] (setting [8]); 87.5% in assay [1] (setting [10]); 99.3% in assay [2] (Table 19, Foliage Treatment, spray 10 ppm suspension water (corresponding to 10 g/ha) 14 days after seeding, untreated 98.0); 93.6% in assay [2] (setting [12]). The “Disease Leaf Rate (%)” value in assay [2] (Table 19, Seed Treatment, 0.1 g/Seed 1 kg (corresponding to 10 g/ha), untreated 98.0) worked out at 75.0%; in assay [2] (setting [14]) it was 41.3%.

Regarding `N=C(N)c1snc(Cl)c1Cl` [Compound (14)], the “Degree of Disease Occurrence” value in assay [1] (setting [15]) is recorded as 18.3; in assay [1] (setting [5]), 14.4; in assay [1] (setting [17]), 7.8; in assay [1] (setting [9]), 11.3; in assay [2] (setting [19]), 48.3; in assay [2] (setting [20]), 42.5. The “Disease Leaf Rate (%)” value in assay [1] (setting [16]) was found to be 61.1%; in assay [1] (setting [6]), 44.4%; in assay [1] (setting [18]), 25.0%; in assay [1] (setting [10]) it was 40.0%; in assay [2] (setting [19]) it was 100.0%; in assay [2] (setting [20]), 90.0%.

Turning to `N=C(Nc1ccccc1)c1snc(Cl)c1Cl` [Compound (16)], the “Degree of Disease Occurrence” value is 63.3 in assay [1] (setting [21]); 43.3 in assay [1] (setting [22]); 22.5 in assay [1] (setting [23]); 6.3 in assay [1] (setting [24]); 32.6 in assay [1] (setting [3]); 19.6 in assay [1] (setting [15]). The “Degree of Disease Occurrence” value was determined as 29.2 in assay [1] (setting [5]); 15.2 in assay [1] (setting [7]); 8.9 in assay [1] (setting [17]); 18.2 in assay [1] (setting [9]); 38.3 in assay [2] (setting [11]); 29.4 in assay [2] (setting [13]). The “Disease Leaf Rate (%)” value in assay [1] (setting [21]) is recorded as 100.0%; in assay [1] (setting [22]) it was 80.0%; in assay [1] (setting [23]), 65.0%; in assay [1] (setting [24]), 16.7%; in assay [1] (setting [4]), 80.6%; in assay [1] (setting [16]), 53.3%. The “Disease Leaf Rate (%)” value was found to be 80.6% in assay [1] (setting [6]); 60.8% in assay [1] (setting [8]); 35.4% in assay [1] (setting [18]); 50.0% in assay [1] (setting [10]); 99.7% in assay [2] (setting [12]); 82.5% in assay [2] (setting [14]).

For the compound `COC(=N)c1snc(Cl)c1Cl` [Compound (11)], the “Degree of Disease Occurrence” value came to 97.9 in assay [1] (setting [25]); 79.7 in assay [1] (setting [26]); 72.6 in assay [1] (setting [27]); 67.6 in assay [1] (setting [28]); 50.1 in assay [1] (setting [29]); 40.8 in assay [1] (setting [30]). Also, the “Degree of Disease Occurrence” value in assay [2] (setting [31]) was 31.7; in assay [2] (Table 17, Foliage Treatment, spray 50 ppm suspension water (corresponding to 50 g/ha) 14 days after seeding, untreated 50.0) it was 35.0; in assay [2] (setting [33]) it was 41.7; in assay [2] (setting [35]), 22.5; in assay [2] (Table 17, Seed Treatment, 0.5 g/Seed 1 kg (corresponding to 50 g/ha), untreated 50.0), 18.8; in assay [2] (setting [37]), 26.5. The “Disease Leaf Rate (%)” value in assay [1] (setting [25]) is 100%; in assay [1] (setting [26]), 100%; in assay [1] (setting [27]), 98.4%; in assay [1] (setting [28]), 99.6%; in assay [1] (setting [29]) it was 95.0%; in assay [1] (setting [30]), 100.0%. Moreover, the “Disease Leaf Rate (%)” value in assay [2] (setting [32]) came to 93.3%; in assay [2] (Table 17, Foliage Treatment, spray 50 ppm suspension water (corresponding to 50 g/ha) 14 days after seeding, untreated 100.0) it was 100.0%; in assay [2] (setting [34]), 100.0%; in assay [2] (setting [36]), 80.0%; in assay [2] (Table 17, Seed Treatment, 0.5 g/Seed 1 kg (corresponding to 50 g/ha), untreated 100.0), 63.8%; in assay [2] (setting [38]), 67.5%.

Take `COC(=O)c1snc(Cl)c1Cl` [Compound (7)]: the “Degree of Disease Occurrence” value in assay [1] (setting [25]) was found to be 94.8; in assay [1] (setting [26]), 78.8; in assay [1] (setting [28]), 77.1; in assay [1] (setting [30]), 61.3; in assay [2] (setting [31]), 41.7; in assay [2] (setting [33]), 50.0. Also, the “Degree of Disease Occurrence” value is reported as 22.5 in assay [2] (setting [35]) and 19.4 in assay [2] (setting [37]). For the same compound, the “Disease Leaf Rate (%)” value turned out to be 100% in assay [1] (setting [25]); 100% in assay [1] (setting [26]); 100.0% in assay [1] (setting [28]); 100.0% in assay [1] (setting [30]); 100.0% in assay [2] (setting [32]); 93.3% in assay [2] (setting [34]). The “Disease Leaf Rate (%)” value was found to be 68.8% in assay [2] (setting [36]) and 77.5% in assay [2] (setting [38]).
